# Test results reported in patent publication US9453026B2, “ACC inhibitors and uses thereof” (Gilead Apollo, Inc., priority 2011, dated 2016).
# Biological target: ACC2 (Homo sapiens, UniProt O00763)
# Experiment: In vitro ACC2 inhibition assay (ADP-Glo)
# Format: biochemical
# Conditions: read-out: ACC2
# Experimental: An exemplary procedure for the in vitro ACC inhibition assay, which can be used to determine the inhibitory action of compounds of the invention toward either ACC1 or ACC2, follows. The ADP-Glo™ Kinase Assay kit from Promega was used. The ADP-Glo™ Kinase Assay is a luminescent ADP detection assay to measure enzymatic activity by quantifying the amount of ADP produced during an enzyme reaction. The assay is performed in two steps; first, after the enzyme reaction, an equal volume of ADP-Glo™ Reagent is added to terminate the reaction and deplete the remaining ATP. Second, the Kinase Detection Reagent is added to simultaneously convert ADP to ATP and allow the newly synthesized ATP to be measured using a luciferase/luciferin reaction. Luminescence can be correlated to ADP concentrations by using an ATP-to-ADP conversion curve. The detailed procedure is as follows. 50 μL of the compound being tested (600 uM in DMSO) was added to a 384-well dilution plate. The compound was diluted 1:3 in succession in DMSO for each row for 11 wells. 0.5 μL ACC2 working solution was added to 384-well white Optiplate assay plate. 0.5 μL diluted compound solution in each column from step 2 to assay plate, each row containing 2 replicates. […] The plates were incubated at room temperature for 15 minutes. 5 μL substrate working solution was added to each well to initiate reaction. […] Plates were incubated at room temperature for 60 minutes. 10 μL ADP glo reagent was added. Plates were incubated at room temperature for 40 minutes. 20 μL kinase detection reagent was added.
# Data for each concentration, as well as the positive and negative controls were averaged, and the standard deviation calculated. Percent inhibition was calculated by the formula: 100× (average negative control−compound)/(average negative control−average positive control). The IC50 for each compound was calculated by fitting the data with a non-linear regression equation: Y=Bottom+(Top-Bottom)/(1+10^((Log IC50−X)*HillSlope)), where X is the log of compound concentration and Y is percent inhibition.
# The compound numbers correspond to the compound numbers in Table 1.
# ACC2, sequence (O00763 whole entry, species assumed): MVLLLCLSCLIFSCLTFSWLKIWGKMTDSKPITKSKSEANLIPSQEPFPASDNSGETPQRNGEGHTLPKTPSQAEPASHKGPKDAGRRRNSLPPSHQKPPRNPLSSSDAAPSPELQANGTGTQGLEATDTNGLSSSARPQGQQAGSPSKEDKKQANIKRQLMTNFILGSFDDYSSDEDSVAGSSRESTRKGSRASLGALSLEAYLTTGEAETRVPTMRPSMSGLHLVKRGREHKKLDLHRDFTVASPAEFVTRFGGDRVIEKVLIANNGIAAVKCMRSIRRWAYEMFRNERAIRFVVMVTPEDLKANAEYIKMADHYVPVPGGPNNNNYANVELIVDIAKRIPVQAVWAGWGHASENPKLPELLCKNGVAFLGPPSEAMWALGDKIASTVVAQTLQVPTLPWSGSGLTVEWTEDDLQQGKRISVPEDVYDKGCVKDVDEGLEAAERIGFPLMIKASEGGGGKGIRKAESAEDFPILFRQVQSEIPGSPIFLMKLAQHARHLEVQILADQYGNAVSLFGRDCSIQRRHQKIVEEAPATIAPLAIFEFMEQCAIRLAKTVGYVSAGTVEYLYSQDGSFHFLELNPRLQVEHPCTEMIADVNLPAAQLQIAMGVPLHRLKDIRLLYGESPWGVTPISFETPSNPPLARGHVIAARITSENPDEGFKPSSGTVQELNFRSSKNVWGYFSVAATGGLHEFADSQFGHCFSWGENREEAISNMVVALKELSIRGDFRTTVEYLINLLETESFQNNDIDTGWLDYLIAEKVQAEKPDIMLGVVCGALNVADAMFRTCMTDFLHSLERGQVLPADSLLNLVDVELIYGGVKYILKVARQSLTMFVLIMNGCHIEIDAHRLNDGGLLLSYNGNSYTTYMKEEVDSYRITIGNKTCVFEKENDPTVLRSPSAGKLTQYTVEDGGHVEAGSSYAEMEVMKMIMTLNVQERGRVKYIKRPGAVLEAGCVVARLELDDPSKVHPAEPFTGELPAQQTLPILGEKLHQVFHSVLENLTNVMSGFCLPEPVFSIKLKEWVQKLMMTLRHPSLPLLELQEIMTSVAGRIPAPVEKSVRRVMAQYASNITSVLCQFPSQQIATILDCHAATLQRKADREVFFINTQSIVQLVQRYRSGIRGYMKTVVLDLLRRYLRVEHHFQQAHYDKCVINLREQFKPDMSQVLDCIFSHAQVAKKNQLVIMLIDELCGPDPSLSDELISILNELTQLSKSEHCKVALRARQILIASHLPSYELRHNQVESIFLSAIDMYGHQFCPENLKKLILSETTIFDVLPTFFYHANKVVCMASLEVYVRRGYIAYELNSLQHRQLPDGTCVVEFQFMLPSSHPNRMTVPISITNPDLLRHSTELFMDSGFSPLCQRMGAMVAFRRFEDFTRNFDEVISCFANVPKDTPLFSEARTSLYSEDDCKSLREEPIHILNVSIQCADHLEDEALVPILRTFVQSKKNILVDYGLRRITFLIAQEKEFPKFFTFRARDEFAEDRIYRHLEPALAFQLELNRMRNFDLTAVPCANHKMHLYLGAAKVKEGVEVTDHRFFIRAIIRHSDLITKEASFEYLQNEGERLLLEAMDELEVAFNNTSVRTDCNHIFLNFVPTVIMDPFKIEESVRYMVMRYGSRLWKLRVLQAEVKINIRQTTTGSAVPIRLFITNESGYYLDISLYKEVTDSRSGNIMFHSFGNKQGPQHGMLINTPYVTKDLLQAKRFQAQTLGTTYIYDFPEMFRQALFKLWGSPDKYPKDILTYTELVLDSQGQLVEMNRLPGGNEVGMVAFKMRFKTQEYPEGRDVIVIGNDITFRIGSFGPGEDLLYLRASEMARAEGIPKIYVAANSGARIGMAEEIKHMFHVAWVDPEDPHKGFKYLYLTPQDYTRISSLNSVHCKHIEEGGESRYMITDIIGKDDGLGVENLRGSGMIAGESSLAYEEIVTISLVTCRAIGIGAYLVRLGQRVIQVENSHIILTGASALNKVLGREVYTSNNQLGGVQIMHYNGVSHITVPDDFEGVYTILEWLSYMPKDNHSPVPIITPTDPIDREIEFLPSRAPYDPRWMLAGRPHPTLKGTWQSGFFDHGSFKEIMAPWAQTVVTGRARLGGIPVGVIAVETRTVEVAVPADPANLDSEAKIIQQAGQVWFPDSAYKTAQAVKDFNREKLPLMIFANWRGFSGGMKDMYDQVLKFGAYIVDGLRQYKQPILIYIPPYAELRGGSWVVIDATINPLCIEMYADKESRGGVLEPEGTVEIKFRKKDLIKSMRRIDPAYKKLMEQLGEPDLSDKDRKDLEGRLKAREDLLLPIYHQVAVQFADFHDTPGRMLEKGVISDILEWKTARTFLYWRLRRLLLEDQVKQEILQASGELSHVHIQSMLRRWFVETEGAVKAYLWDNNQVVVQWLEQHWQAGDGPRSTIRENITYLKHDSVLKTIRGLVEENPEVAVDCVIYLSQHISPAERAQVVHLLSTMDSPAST
row,Structure (SMILES),IC50
1,Cc1c(C(N)=O)sc2c1c(=O)n(CCO)c(=O)n2CCc1ccccc1 [I-47],> 50 µM
2,"CCOC(=O)c1sc2c(c1C)c(=O)n(CC(=O)NCCO)c(=O)n2CCc1ccccc1 [I-48, ethyl 3-[[(2-hydroxyethyl)carbamoyl]methyl]-5-methyl-2,4-dioxo-1-(2-phenylethyl)-1H,2H,3H,4H-thieno[2,3-d]pyrimidine-6-carboxylate]",5 to 20 µM
3,CCOC(=O)c1sc2c(c1C)c(=O)n(CCO)c(=O)n2CCc1nccs1 [I-49],> 50 µM
4,"CCOC(=O)c1sc2c(c1C)c(=O)n(CC(=O)O)c(=O)n2Cc1ccc2c(c1)OCO2 [I-50, 2-[1-(2H-1,3-benzodioxol-5-ylmethyl)-6-(ethoxycarbonyl)-5-methyl-2,4-dioxo-1H,2H,3H,4H-thieno[2,3-d]pyrimidin-3-yl]acetic acid]",> 50 µM
5,"CCOC(=O)c1sc2c(c1C)c(=O)n(CCO)c(=O)n2Cc1ccc2[nH]ccc2c1 [I-51, ethyl 3-(2-hydroxyethyl)-1-(1H-indol-5-ylmethyl)-5-methyl-2,4-dioxo-1H,2H,3H,4H-thieno[2,3-d]pyrimidine-6-carboxylate]",> 50 µM
6,"CCOC(=O)c1sc2c(c1C)c(=O)n(CC(=O)O)c(=O)n2CCc1ccc(I)cc1 [I-53, 2-[6-(ethoxycarbonyl)-1-[2-(4-iodophenyl)ethyl]-5-methyl-2,4-dioxo-1H,2H,3H,4H-thieno[2,3-d]pyrimidin-3-yl]acetic acid]",5 to 20 µM
7,"CCOC(=O)c1sc2c(c1C)c(=O)n(CC(=O)O)c(=O)n2CCc1ccccc1Br [I-54, 2-[1-[2-(2-bromophenyl)ethyl]-6-(ethoxycarbonyl)-5-methyl-2,4-dioxo-1H,2H,3H,4H-thieno[2,3-d]pyrimidin-3-yl]acetic acid]",5 to 20 µM
8,"CCOC(=O)c1sc2c(c1C)c(=O)n(C(C)C(=O)O)c(=O)n2CCc1ccccc1 (centres unmarked) [I-56, 2-[6-(ethoxycarbonyl)-5-methyl-2,4-dioxo-1-(2-phenylethyl)-1H,2H,3H,4H-thieno[2,3-d]pyrimidin-3-yl]propanoic acid]",< 5 µM
9,Cc1c(C(=O)NCCO)sc2c1c(=O)n(CCO)c(=O)n2CCc1ccccc1 [I-57],> 50 µM
10,Cc1csc2c1c(=O)n(CCO)c(=O)n2CCc1ccccc1 [I-58],> 50 µM
11,O=c1c2ccsc2n(CCc2ccccc2)c(=O)n1CCO [I-59],> 50 µM
12,"CCOC(=O)c1sc2c(c1C)c(=O)n(CC(C)O)c(=O)n2CCc1ccccc1 (centres unmarked) [I-62, ethyl 3-(2-hydroxypropyl)-5-methyl-2,4-dioxo-1-(2-phenylethyl)-1H,2H,3H,4H-thieno[2,3-d]pyrimidine-6-carboxylate]",5 to 20 µM
13,Cc1csc2c1c(=O)n(CC(=O)O)c(=O)n2CCc1ccccc1 [I-63],20 to 50 µM
14,CCOC(=O)c1sc2c(c1C)c(=O)n(CCO)c(=O)n2Cc1ccc2ccn(C)c2c1 [I-64],> 50 µM
15,"O=C(O)Cn1c(=O)c2ccsc2n(CCc2ccccc2)c1=O [I-65, 2-[2,4-dioxo-1-(2-phenylethyl)-1H,2H,3H,4H-thieno[2,3-d]pyrimidin-3-yl]acetic acid]",> 50 µM
16,"[2H]c1ccc(CCn2c(=O)n(CC(=O)O)c(=O)c3c(C)c(C(=O)OCC)sc32)cc1 [I-66, 2-(1-(4-deuterophenethyl)-6-(ethoxycarbonyl)-5-methyl-2,4-doxo-1,2-dihydrothieno[2,3-d]pyrimidin-3(4H)-yl)acetic acid]",< 5 µM
17,"CCOC(=O)c1sc2c(c1C)c(=O)n(CC(=O)O)c(=O)n2CC(OC)c1ccccc1 (centres unmarked) [I-67, 2-[6-(ethoxycarbonyl)-1-(2-methoxy-2-phenylethyl)-5-methyl-2,4-dioxo-1H,2H,3H,4H-thieno[2,3-d]pyrimidin-3-yl]acetic acid]",< 5 µM
18,"CCCOC(=O)c1sc2c(c1C)c(=O)n(CC(=O)O)c(=O)n2CCc1ccccc1 [I-68, 2-[5-methyl-2,4-dioxo-1-(2-phenylethyl)-6-(propoxycarbonyl)-1H,2H,3H,4H-thieno[2,3-d]pyrimidin-3-yl]acetic acid]",5 to 20 µM

row,Structure (SMILES),IC50
1,"CCOC(=O)c1sc2c(c1C)c(=O)n(C(C)C(N)=O)c(=O)n2CCc1ccccc1 (centres unmarked) [I-69, ethyl 3-(1-carbamoylethyl)-5-methyl-2,4-dioxo-1-(2-phenylethyl)-1H,2H,3H,4H-thieno[2,3-d]pyrimidine-6-carboxylate]",< 5 µM
2,"Cc1c(C(N)=O)sc2c1c(=O)n(CC(=O)O)c(=O)n2CCc1ccccc1 [I-71, 2-[6-carbamoyl-5-methyl-2,4-dioxo-1-(2-phenylethyl)-1H,2H,3H,4H-thieno[2,3-d]pyrimidin-3-yl]acetic acid]",> 50 µM
3,CCOC(=O)c1sc2c(c1C)c(=O)n(CS(C)(=O)=O)c(=O)n2CCc1ccccc1 [I-72],> 50 µM
4,"CCOC(=O)c1sc2c(c1C)c(=O)n(CC(=O)O)c(=O)n2CC(=O)c1ccccc1 [I-73, 2-[6-(ethoxycarbonyl)-5-methyl-2,4-dioxo-1-(2-oxo-2-phenylethyl)-1H,2H,3H,4H-thieno[2,3-d]pyrimidin-3-yl]acetic acid]",20 to 50 µM
5,"CCOC(=O)c1sc2c(c1C)c(=O)n(CC(=O)O)c(=O)n2Cc1ccc2ccn(C)c2c1 [I-74, 2-[6-(ethoxycarbonyl)-5-methyl-1-[(1-methyl-1H-indol-6-yl)methyl]-2,4-dioxo-1H,2H,3H,4H-thieno[2,3-d]pyrimidin-3-yl]acetic acid]",5 to 20 µM
6,"COCc1sc2c(c1C)c(=O)n(CC(=O)O)c(=O)n2CCc1ccccc1 [I-75, 2-[6-(methoxymethyl)-5-methyl-2,4-dioxo-1-(2-phenylethyl)-1H,2H,3H,4H-thieno[2,3-d]pyrimidin-3-yl]acetic acid]",5 to 20 µM
7,"CCOC(=O)c1sc2c(c1C)c(=O)n([C@H](C)C(=O)O)c(=O)n2CCc1ccccc1 [I-76, (2R)-2-[6-(ethoxycarbonyl)-5-methyl-2,4-dioxo-1-(2-phenylethyl)-1H,2H,3H,4H-thieno[2,3-d]pyrimidin-3-yl]propanoic acid]",< 5 µM
8,"CCOC(=O)c1sc2c(c1C)c(=O)n(CC(=O)O)c(=O)n2C[C@@H](O)c1ccccc1 [I-77, 2-[6-(ethoxycarbonyl)-1-[(2S)-2-hydroxy-2-phenylethyl]-5-methyl-2,4-dioxo-1H,2H,3H,4H-thieno[2,3-d]pyrimidin-3-yl]acetic acid]",5 to 20 µM
9,"CCOC(=O)c1sc2c(c1C)c(=O)n(CC(=O)O)c(=O)n2C[C@H](O)c1ccccc1 [I-78, 2-[6-(ethoxycarbonyl)-1-[(2R)-2-hydroxy-2-phenylethyl]-5-methyl-2,4-dioxo-1H,2H,3H,4H-thieno[2,3-d]pyrimidin-3-yl]acetic acid]",< 5 µM
10,"CCOC(=O)c1sc2c(c1C)c(=O)n(CC(C)(C)O)c(=O)n2CCc1ccccc1 [I-79, ethyl 3-(2-hydroxy-2-methylpropyl)-5-methyl-2,4-dioxo-1-(2-phenylethyl)-1H,2H,3H,4H-thieno[2,3-d]pyrimidine-6-carboxylate]",5 to 20 µM
11,"CCOC(=O)c1sc2c(c1C)c(=O)n([C@@H](C)C(=O)O)c(=O)n2CCc1ccccc1 [I-80, (2S)-2-[6-(ethoxycarbonyl)-5-methyl-2,4-dioxo-1-(2-phenylethyl)-1H,2H,3H,4H-thieno[2,3-d]pyrimidin-3-yl]propanoic acid]",< 5 µM
12,"CCOC(=O)c1sc2c(c1C)c(=O)n(C[C@@H](C)O)c(=O)n2CCc1ccccc1 [I-81, ethyl 3-[(2R)-2-hydroxypropyl]-5-methyl-2,4-dioxo-1-(2-phenylethyl)-1H,2H,3H,4H-thieno[2,3-d]pyrimidine-6-carboxylate]",5 to 20 µM
13,"CCOC(=O)c1sc2c(c1C)c(=O)n(C[C@H](C)O)c(=O)n2CCc1ccccc1 [I-82, ethyl 3-[(2S)-2-hydroxypropyl]-5-methyl-2,4-dioxo-1-(2-phenylethyl)-1H,2H,3H,4H-thieno[2,3-d]pyrimidine-6-carboxylate]",5 to 20 µM
14,"Cc1c(C(=O)OCCO)sc2c1c(=O)n(CC(=O)O)c(=O)n2CCc1ccccc1 [I-83, 2-[6-[(2-hydroxyethoxy)carbonyl]-5-methyl-2,4-dioxo-1-(2-phenylethyl)-1H,2H,3H,4H-thieno[2,3-d]pyrimidin-3-yl]acetic acid]",< 5 µM
15,"CCOC(=O)c1sc2c(c1C)c(=O)n(CC(=O)O)c(=O)n2CCc1nc2ccccc2s1 [I-84, 2-[1-[2-(1,3-benzothiazol-2-yl)ethyl]-6-(ethoxycarbonyl)-5-methyl-2,4-dioxo-1H,2H,3H,4H-thieno[2,3-d]pyrimidin-3-yl]acetic acid]",> 50 µM
16,"CCOC(=O)c1sc2c(c1C)c(=O)n(CC(=O)O)c(=O)n2CC(OC(C)=O)c1ccccc1 (centres unmarked) [I-85, 2-[1-[2-(acetyloxy)-2-phenylethyl]-6-(ethoxycarbonyl)-5-methyl-2,4-dioxo-1H,2H,3H,4H-thieno[2,3-d]pyrimidin-3-yl]acetic acid]",< 5 µM
17,"Cc1c(C(=O)OC2CCC2)sc2c1c(=O)n(CC(=O)O)c(=O)n2CCc1ccccc1 [I-86, 2-[6-(cyclobutoxycarbonyl)-5-methyl-2,4-dioxo-1-(2-phenylethyl)-1H,2H,3H,4H-thieno[2,3-d]pyrimidin-3-yl]acetic acid]",5 to 20 µM
